Experimental data from patent US20100190826A1, “BENZIMIDAZOLE DERIVATIVE” (priority 2007, published 2010).

Legend:
human 17βHSD type 5 = target: T1, human 17βHSD type 5 (Homo sapiens, UniProt P42330); test: Measurement of enzyme activity of human 17βHSD type 5 (testosterone production from androstenedione); format: biochemical; conditions: purified enzyme 10 μg/mL, androstenedione 300 nM, NADPH 200 μM, pH 6.0, room temperature 2 hours; read-out: Type5 IC50
T1 construct: A full-length cDNA encoding human 17βHSD type 5; GST (cleaved yes); made in house; host or cells: Escherichia coli BL21
T1 sequence (P42330 1-323): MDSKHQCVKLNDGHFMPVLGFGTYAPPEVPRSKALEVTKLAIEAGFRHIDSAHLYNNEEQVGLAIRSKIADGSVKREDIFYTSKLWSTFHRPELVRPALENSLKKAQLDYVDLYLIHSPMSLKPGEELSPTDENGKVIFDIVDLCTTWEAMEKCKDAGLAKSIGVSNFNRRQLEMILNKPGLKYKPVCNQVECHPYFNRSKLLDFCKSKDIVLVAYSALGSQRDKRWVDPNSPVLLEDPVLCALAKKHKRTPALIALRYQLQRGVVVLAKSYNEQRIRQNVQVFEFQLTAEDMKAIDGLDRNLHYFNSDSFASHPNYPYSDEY
Excerpt: (§1) An excellent selective inhibitory activity against human 17βHSD type 5 of the compounds of the present invention was confirmed by the test method described below. In this connection, the test may be carried out by referring to the details of test procedure described in Maniatis, T. et al., Molecular Cloning—A Laboratory Manual Cold Spring Harbor Laboratory, NY (1982) and the like. In addition, genes encoding human 17βHSD type5 and type3 described in Sections 1 and 2 below, and human 17βHSD type 5 and type 3 may be obtained by the method described in Molecular Endocrinology, 1997, 11(13), 1971-1984.
1. Isolation of Gene Encoding Human 17βHSD Type 5 and Enzyme Purification
A full-length cDNA encoding human 17βHSD type 5 used in the pharmacological test of the present invention was obtained by the PCR method using a cDNA derived from a human lung cancer-derived cell line, A549 cells as a template. The nucleotide sequence of the obtained cDNA was analyzed by the dideoxyterminator method, and the clone matched with the known human 17βHSD type 5 sequence (GenBank accession No. NM_003739) was selected. Escherichia coli BL21 was transformed with a plasmid containing the cDNA and cultured on a large scale. The proteins were purified by using GSTrapFF column (manufactured by Amersham) and PreScissionProtease (manufactured by Amersham). The purification method was carried out in accordance with the instructions attached to the GSTrapFF column.
(§2) 3. Measurement of Enzyme Activities of Human 17βHSD Type 5 and Type 3
(§3) Enzyme activity was measured referring to Trevor M. Penning, et al., Biochem. J., 351, 67-77, (2000). Specifically, using a 100 mM potassium phosphate buffer (pH 6.0), (1) the enzyme purified in Section 1 at a final concentration of 10 μg/mL, (2) androstenedione at a final concentration of 300 nM, (3) NADPH at a final concentration of 200 μM, and (4) a test substance, were mixed to react at room temperature for 2 hours, and then the amount of testosterone produced was measured using DELFIA (registered trademark) Testosterone Reagents R050-201 (manufactured by PerkinElmer). The measurement was performed in accordance with the attached instructions. The amount of reduction of testosterone production in the presence of the compound was obtained as a relative value with respect to the amount of testosterone in the absence of the enzyme set at 0% and the amount of testosterone produced in the absence of the compound set at 100%. Then, IC50 values were calculated by the Logistic regression method.

human 17βHSD type 3 = target: T2, human 17βHSD type 3 (Homo sapiens, UniProt P37058); test: Measurement of enzyme activity of human 17βHSD type 3; format: biochemical; conditions: enzyme source: supernatant of transformed 293 cells; read-out: Type3 IC50
T2 construct: A full-length cDNA encoding human 17βHSD type 3; made in house; host or cells: human fetus kidney-derived 293 cells (transient, 24 h); supernatant of disrupted cells
T2 sequence (P37058 1-310): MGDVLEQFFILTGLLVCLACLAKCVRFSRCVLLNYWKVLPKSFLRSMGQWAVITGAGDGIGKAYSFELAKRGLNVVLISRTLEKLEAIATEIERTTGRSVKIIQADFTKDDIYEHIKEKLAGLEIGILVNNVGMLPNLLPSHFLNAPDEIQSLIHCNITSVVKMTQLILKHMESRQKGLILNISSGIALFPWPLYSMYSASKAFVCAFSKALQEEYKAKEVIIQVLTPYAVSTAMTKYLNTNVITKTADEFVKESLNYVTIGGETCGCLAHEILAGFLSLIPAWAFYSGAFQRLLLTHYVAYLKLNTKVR
Excerpt: as §1
2. Isolation of Gene Encoding Human 17βHSD Type 3 and Enzyme Purification
A full-length cDNA encoding human 17βHSD type 3 used in the pharmacological test of the present invention was obtained by the PCR method using a cDNA derived from human testis as a template. The nucleotide sequence of the obtained cDNA was analyzed by the dideoxyterminator method, and the clone matched with the known human 17βHSD type 3 sequence (GenBank accession No. BCO34281) was selected. Subsequently, human fetus kidney-derived cell line, 293 cells, were transformed with a plasmid containing the cDNA, and the cells were collected 24 hours later. The collected cells were then disrupted in a phosphate buffer solution containing 5% glycerol (500 μL per 100 mm-dish of a phosphate buffer solution (pH 7.4, 200 mM) containing 5% glycerol) and centrifuged (16000 rpm, 5 min, 4° C.), and the supernatant was used as an enzyme source.
as §2, §3

[1] = target: T3, human 17βHSD type 5-expressing LNCaP cells (Homo sapiens, UniProt P42330); test: Cell growth inhibitory activity using LNCaP cells expressing human 17βHSD type 5 (androstenedione-stimulated, CellTiter-Glo); format: cell-based; conditions: androstenedione 10 nM, culturing for 7 days; read-out: LNCaP-17β5 IC50
T3 sequence (P42330 1-323): T1 sequence (P42330 1-323)
Procedure: Subsequently, LNCaP cells expressing human 17βHSD type 5 were constructed from a human prostate cancer-derived cell line, LNCaP cells, and a cell growth inhibitory activity of the compound of the present invention was evaluated.
4. Construction of LNCaP Cells Expressing Human 17βHSD Type 5
A full-length cDNA encoding human 17βHSD type 5 used in the pharmacological test of the present invention was obtained by the PCR method using a cDNA derived from a human lung cancer-derived cell line, A549 cells, as a template. The nucleotide sequence of the obtained cDNA was analyzed by the dideoxyterminator method, and the clone matched with the known human 17βHSD type 5 sequence (GenBank accession No. NM_003739) was selected. The human prostate cancer-derived cell line LNCaP cells were transformed with a plasmid containing the cDNA and the cell line showing stable expression was obtained.
5. Measurement of Cell Growth Capability Using LNCaP Cells Expressing Human 17βHSD Type 5
9000 cells/well of the transformed cells obtained in Section 4 above were seeded in a 96-well plate and cultured overnight. Then, androstenedione, in conjunction with a test compound, was added thereto at a final concentration of 10 nM, followed by culturing for 7 days. After the culturing, number of the cells was counted using a CellTiter-Glo (registered trademark) Luminescent Cell Viability Assay (Promega). The CellTiter-Glo (registered trademark) Luminescent Cell Viability Assay is a reagent that measures the number of the cells by monitoring an intracellular ATP level from the luminescence intensity by luciferase. The experimental manipulation was carried out in accordance with the attached instructions. The cell growth inhibitory activity in the presence of a test compound was calculated as a relative value with respect to the number of the cells in the absence of androstenedione set at proliferation of 0%, and the number of the cells in the presence of androstenedione and in the absence of the test compound set at proliferation of 100%. Then, IC50 values were calculated by the Logistic regression method.

5α-reductase = conditions: patients with BPH, after administration of finasteride; cited from earlier work

Row | Structure (SMILES) | IC50 (human 17βHSD type 5) | IC50 (human 17βHSD type 3) | GI50 [1] | concentration of DHT in the prostate relative to the concentration before the administration (5α-reductase) | increase of the concentration of testosterone in the prostate (5α-reductase)
1 | CC(C)(C)NC(=O)[C@H]1CC[C@H]2[C@@H]3CC[C@H]4NC(=O)C=C[C@]4(C)[C@H]3CC[C@]12C [finasteride] |  |  |  | about 20% | 4 fold
2 | N#Cc1ccc2c(ccn2-c2cccc(C(=O)O)c2)c1 [Example 1, 3-(5-cyano-1H-indol-1-yl) benzoic acid] | 200 nM | > 10000 nM | 6680 nM |  | 
3 | O=C(O)c1cccc(-n2c(-c3ccccc3)nc3cc(C(F)(F)F)ccc32)c1 [Example 17] | 180 nM | 6400 nM | 66 nM |  | 
4 | COCCc1cn(-c2cccc(C(=O)O)c2)c2ccc(C(F)(F)F)cc12 [Example 47, 3-[3-(2-methoxyethyl)-5-(trifluoromethyl)-1H-indol-1-yl]benzoic acid] | 180 nM | 2500 nM | 92 nM |  | 
5 | O=C(O)c1cccc(-n2cnc3cc(C(F)(F)F)ccc32)c1 [Example 20] | 120 nM | 7300 nM | 101 nM |  | 
6 | COc1nc2cc(C(F)(F)F)ccc2n1-c1cccc(C(=O)O)c1 [Example 32] | 120 nM |  | 46 nM |  | 

More lines, main results first:

Row | IC50 (human 17βHSD type 5) | IC50 (human 17βHSD type 3) | GI50 [1] | Structure (SMILES) | concentration of DHT in the prostate relative to the concentration before the administration (5α-reductase) | increase of the concentration of testosterone in the prostate (5α-reductase)
7 | 110 nM | 4700 nM | 102 nM | Cc1nc2cc(C(F)(F)F)ccc2n1-c1cccc(C(=O)O)c1 [Example 21] |  | 
8 | 70 nM | 3200 nM | 141 nM | O=C(O)c1cccc(-n2c(C(F)(F)F)nc3cc(C(F)(F)F)ccc32)c1 [Example 54, 3-[2,5-bis(trifluoromethyl)-1H-benzimidazol-1-yl]benzoic acid] |  | 
9 | 96 nM | > 10000 nM | 45 nM | O=C(O)c1cccc(-n2c(Cc3ccccc3)nc3cc(C(F)(F)F)ccc32)c1 [Example 38] |  | 
10 | 50 nM | 1800 nM | 46 nM | O=C(O)c1cccc(-n2cc(-c3ccccc3)c3cc(C(F)(F)F)ccc32)c1 [Example 6] |  | 
11 | 40 nM |  | 34 nM | O=C(O)c1cccc(-n2c(COc3ccccc3)nc3cc(C(F)(F)F)ccc32)c1 [Example 44] |  | 
